Laboratory results reported in ChEMBL document CHEMBL1137189, “Syntheses and anti-MRSA activities of the C3 analogs of mansonone F, a potent anti-bacterial sesquiterpenoid: insights into its structural requirements for anti-MRSA activity” (2004).
In brackets after ≈: the same amount, converted by molar mass.

Tested on: Staphylococcus aureus
Experiment: Minimum inhibitory concentration against methicillin-resistant Staphylococcus aureus
Type: functional

SMILES	MIC50 [µg/mL]	MIC90 [µg/mL]
CC1=C2OC=Cc3ccc(C)c(c32)C(=O)C1=O	8 (≈ 35.4 µM)	8 (≈ 35.4 µM)
COC1=CC(=O)C(=O)C=C1C	> 32	> 32
CCOC(=O)CC1COC2=C(C)C(=O)C(=O)c3c(C)ccc1c32 (configuration not stated)	16 (≈ 50.9 µM)	32 (≈ 102 µM)
CCC1COC2=C(C)C(=O)C(=O)c3c(C)ccc1c32 (configuration not stated)	32 (≈ 125 µM)	32 (≈ 125 µM)
CC1=C2OC=C(C(C)C)c3ccc(C)c(c32)C(=O)C1=O	4 (≈ 14.9 µM)	4 (≈ 14.9 µM)
CC1=C2OCC(CC(=O)O)c3ccc(C)c(c32)C(=O)C1=O (configuration not stated)	> 32	> 32
CC1=C2OCCc3ccc(C)c(c32)C(=O)C1=O	16 (≈ 70.1 µM)	16 (≈ 70.1 µM)
CC1=C2OC=C(C#N)c3ccc(C)c(c32)C(=O)C1=O	8 (≈ 31.8 µM)	16 (≈ 63.7 µM)
CCC1(O)COC2=C(C)C(=O)C(=O)c3c(C)ccc1c32 (configuration not stated)	16 (≈ 58.8 µM)	16 (≈ 58.8 µM)
CC1=C2OCC(Cl)(C(F)(F)F)c3ccc(C)c(c32)C(=O)C1=O (configuration not stated)	16 (≈ 48.4 µM)	16 (≈ 48.4 µM)
COC1=C(C)C(=O)C(=O)c2c(C)cccc21	> 32	> 32
CC1=C2OC=C(C(F)(F)F)c3ccc(C)c(c32)C(=O)C1=O	16 (≈ 54.4 µM)	> 32
CCC1=COC2=C(C)C(=O)C(=O)c3c(C)ccc1c32	4 (≈ 15.7 µM)	4 (≈ 15.7 µM)
CC1=COc2c(C)ccc3c(C)ccc1c23	> 32	> 32
CCCCC1=COC2=C(C)C(=O)C(=O)c3c(C)ccc1c32	8 (≈ 28.3 µM)	8 (≈ 28.3 µM)
CC1=C2OCC(C)(O)c3ccc(C)c(c32)C(=O)C1=O (configuration not stated)	16 (≈ 61.9 µM)	> 32
C=CC1=COC2=C(C)C(=O)C(=O)c3c(C)ccc1c32	> 32	> 32
CC1=COc2c(C)cc([N+](=O)[O-])c3c(C)ccc1c23	> 32	> 32
CN[C@H](CC(C)C)C(=O)N[C@H]1C(=O)N[C@@H](CC(N)=O)C(=O)N[C@H]2C(=O)N[C@H]3C(=O)N[C@H](C(=O)N[C@H](C(=O)O)c4cc(O)cc(O)c4-c4cc3ccc4O)[C@H](O)c3ccc(c(Cl)c3)Oc3cc2cc(c3O[C@@H]2O[C@H](CO)[C@@H](O)[C@H](O)[C@H]2O[C@H]2C[C@](C)(N)[C@H](O)[C@H](C)O2)Oc2ccc(cc2Cl)[C@H]1O [VANCOMYCIN]	2 (≈ 1.38 µM)	2 (≈ 1.38 µM)
CC1=C2OCC(C)c3ccc(C)c(c32)C(=O)C1=O (configuration not stated) [MANSONONE E]	8 (≈ 33 µM)	16 (≈ 66 µM)
CC1=C2OC=C(CCO)c3ccc(C)c(c32)C(=O)C1=O	> 32	> 32
